Molecules are shown by their SMILES. “And” between values parts separate entries of the source, which are not always exact repeats. Equal entries are not always repeated. The source made the active and inactive calls.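 Rule for the calls: active = compounds giving half or more protection of infected cells from virus-caused growth loss, again on retest; inactive = the rest.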 Where a SMILES comes first, the peptide text is derived from it. [ ]: non-standard residue; d: D form. The star is where a group is joined. Phe(4-NO2) = N[CH](Cc1ccc([N+](=O)[O-])cc1)C(=O)O; hSer = N[CH](CCO)C(=O)O; Cbz = O=C(OCc1ccccc1)*; Boc = CC(C)(C)OC(=O)*; Bn = c1ccc(C*)cc1

These results are taken from PubChem BioAssay AID179 (DTP/NCI, 2004).

The assay relates to CEM cells HIV-1 protection, formazan growth assay. Description: NCI AIDS Antiviral Assay. Particulars: for IC50: measured here: growth of uninfected CEM cells. Summed up:
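Five concentrations of each compound were applied to infected and uninfected human CEM cells. Protection from HIV-1 was judged from growth measured with a soluble formazan assay.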

A word on the EC50: it is the concentration needed to bring the measured effect to its halfway point. By IC50 is commonly meant the concentration needed to halve the response being measured. For `CCOC(=O)CCC(NC(=O)OCc1ccccc1)C(=O)NC(CCC(=O)OCC)C(=O)NC(Cc1ccc([N+](=O)[O-])cc1)C(=O)NC(CCC(=O)OCC)C(=O)NC(CCC(=O)OCC)C(=O)OCC` (stereo not given) (Cbz-E(OEt)E(OEt)[Phe(4-NO2)]E(OEt)E(OEt)-OEt; configuration not given here), the EC50 is more than 200 µM and the IC50 was more than 200 µM.

With `COc1cc2c(c(C)c1O)[C@H]1COc3ccccc3[C@H]1O2`, the EC50 is more than 87.1 µM and the IC50 came out at 15.8 µM.

Take `NC(CSS(=O)(=O)O)=NCCc1c[nH]c(=S)[nH]1`: the EC50 is more than 200 µM and the concentration for half-maximal inhibition (IC50) was 34.7 µM.

In the case of `N#Cc1c2c(c(-c3cccs3)n(C3OC(CO)C(O)C(O)C3O)c1=S)CCc1ccccc1-2` (stereo not given), the outcome was inactive.

Regarding `NC(=S)N/N=C1\CCCc2ccccc21`, the EC50 was more than 162 µM and the 50% inhibitory concentration (IC50) was 81.3 µM.

Consider `COC(=O)C(CC(C)C)NC(=O)CNC(=O)C(Cc1ccc(OCc2ccccc2)cc1)NC(=O)C(COCc1ccccc1)NC(=O)OC(C)(C)C` (stereo not given) (Boc-S(Bn)Y(Bn)GL-OMe; configuration not given here), for which the EC50 was more than 200 µM and the IC50 was 115 µM.

As for `ClC1=NN=C(c2c[nH]c3ccccc23)CC1NCc1ccccc1` (stereo not given), the EC50 was more than 200 µM and the IC50 is more than 200 µM.

For `C/C(=N\N=C(/[O-])c1ccccc1)c1cccc(/C(C)=N/N=C(\[O-])c2ccccc2)n1.O.[Cu+2]`, the EC50 was more than 100 µM and the IC50 was 18.2 µM.

In the case of `Cc1ccc(-c2cc(=O)c3cc(C)c(C)c(C(=O)O)c3o2)cc1C`, the outcome was inactive.

`COc1ccc(C2OC(=O)c3ccccc32)c2ccccc12` (stereo not given): the EC50 is more than 46.8 µM and the IC50 was more than 46.8 µM.

In the case of `O=C1/C(=C/c2ccccc2)CCCC/C1=C\c1ccccc1`, the EC50 was more than 6.92 µM and the half-inhibitory concentration (IC50) was more than 6.92 µM.

As for `CCCOC(C(=O)OC1CCC2CCC1N2C)(c1ccccc1)c1ccccc1` (stereo not given), the EC50 was more than 200 µM and the 50% inhibitory concentration (IC50) was 28.8 µM.

Take `O=[N+]([O-])c1ccc(S(=O)(=O)N/N=C/c2ccccc2[N+](=O)[O-])cc1`: the EC50 is more than 102 µM and the IC50 was more than 102 µM.

Take `O=c1c2c3ccccc3[nH]c2c2cccc3c2n1CCC3`: the EC50 was more than 200 µM and the half-maximal inhibitory concentration (IC50) was found to be 61.7 µM.

For the compound `O=C1C(Cl)=C(Cl)C(=O)N1C1C2CC3CC(C2)CC1C3` (stereo not given), the result was inactive.

Turning to `N#Cc1ncoc1N`, the EC50 is more than 200 µM and the 50% inhibitory concentration (IC50) is more than 200 µM.

With `OC[C@@H]1CC#C/C=C\C#CC[C@@H]1CO`, the outcome was inactive.

Regarding `COCCC(NC(=O)C(CC(C)C)NC(=O)OC(C)(C)C)C(N)=O` (stereo not drawn) (Boc-Leu-[hSer](Me)-NH2; configuration not given here), the EC50 is more than 200 µM and the IC50 was more than 200 µM.

Regarding `CC(C)(C)c1cc(C(O)(C(F)(F)F)C(F)(F)F)c2c(c1)C(C(F)(F)F)(C(F)(F)F)OC(c1ccccc1)(C(C)(C)C)N2` (stereo not given), the result was inactive.

Take `CCN=C1C=C/C(=C(/c2ccc(NCC)c(C)c2)c2cc(O)c(S(=O)(=O)O)cc2S(=O)(=O)O)C=C1C`: the result was inactive.

Turning to `COc1ccc(C(=O)/C=C/c2ccc(OCC(=N)N)cc2)cc1OC`, the outcome was inactive.

As for `Nc1nc2c3c(ncn3CC(O)CO2)n1` (stereo not given), the EC50 is more than 9.55 µM and the IC50 is more than 9.55 µM.

With `CC(CC/C=C/CO)C1CC(OS(=O)(=O)O)C2(O)C1(C)CCC1C3CCC(O)C(O)C3C(O)CC12O` (stereo not given), the outcome was inactive.

In the case of `COC1=C(C(c2cc(OC)c(OC)c(OC)c2)c2cc3c(cc2OC)OCO3)C(=O)OC1` (stereo not given), the EC50 is more than 200 µM and the concentration for half-maximal inhibition (IC50) turned out to be 10.5 µM.

Regarding `CSc1nc(NC2OCC(O)C(O)C2O)cc(=O)n1C` (stereo not given), the outcome was inactive.

Regarding `C=C1OC(OC)CC(N)C1O` (stereo not given), the outcome was inactive.

In the case of `C=CCN1CCC(OC(=O)C(O)(/C=C\CC)C2CCCC2)CC1` (stereo not given), the EC50 is more than 200 µM and the IC50 was more than 200 µM.

`O=C(C=Nc1ccccc1S)c1ccco1`: the outcome was inactive.

As to `COc1ccc(/C=C2\C(=O)N(C(=O)c3ccc(NC(C)=O)cc3)N=C2C)cc1OC`, the EC50 is more than 9.33 µM and the IC50 was more than 9.33 µM.

As to `C[N+](C)(C)CC(=O)N/N=C(\C(=O)NC1=C(Cl)C(=O)c2ccccc2C1=O)C(C#N)c1nc(-c2ccc([N+](=O)[O-])cc2)cs1` (stereo not given), the outcome was inactive.

`Cc1ccc(/C=N/Nc2cc(C)c3ccccc3n2)s1`: the EC50 is more than 200 µM and the half-inhibitory concentration (IC50) was found to be 10.7 µM.

`O=C(C(Cl)=C(Nc1ccccc1)Nc1ccccc1)C(Cl)Cl`: the EC50 was more than 200 µM and the IC50 was found to be 19.5 µM.

As for `CC1=C(C(=O)NCc2ccccc2)C(c2ccc(Cl)c(Cl)c2)C(C(=O)NCc2ccccc2)=C(C)N1`, the result was inactive.

As for `CCOC(=O)c1cnc2oc(-c3ccc(OC)cc3)nn2c1=O`, the outcome was inactive.

For `O=c1[nH]nc(Cc2ccc(Cl)cc2)n1Nc1ccccc1`, the EC50 is more than 200 µM and the IC50 was more than 200 µM.

Consider `C[C@]12CCC3[C@@H](CC[C@@H]4c5nonc5CC[C@]34C)C1CCC2=O` (stereo not given in full), for which the EC50 is more than 57.5 µM and the IC50 was more than 57.5 µM.

With `CCN1c2cc(Br)cc3[nH]c(=S)n(c23)CCC1C` (stereo not given), the EC50 was 3.72 µM and the half-inhibitory concentration (IC50) worked out at 112 µM.

Consider `O=c1c(Nc2ccccc2)cn(CCOc2ccccc2)c(=O)n1CCOc1ccccc1`, for which the EC50 is more than 200 µM and the IC50 was more than 200 µM.

Consider `NC(=Nc1ccccc1)C(F)(F)F`, for which the EC50 is more than 200 µM and the concentration for half-maximal inhibition (IC50) was more than 200 µM.

Consider `S=c1[nH]nc(CCCCCCCCc2n[nH]c(=S)o2)o1`, for which the result was inactive.

For the compound `COc1ccccc1/C=C(/C(=O)c1ccccc1)c1ccccc1`, the EC50 was more than 8.71 µM and the 50% inhibitory concentration (IC50) is more than 8.71 µM.

`CCCCCCCCCCCC(O)S(=O)(=O)O` (stereo not given): the EC50 was more than 200 µM and the IC50 worked out at 102 µM.

As for `O=c1cc(CO)oc2c3c(cc(O)c12)OCC(COC1OC(CO)C(O)C(O)C1O)=CC3` (stereo not given), the EC50 was more than 550 µM and the 50% inhibitory concentration (IC50) turned out to be 288 µM.

Regarding `CCCCCC/C(CC(=O)CCC(=O)NCCc1ccccc1)=N\Nc1ccc([N+](=O)[O-])cc1[N+](=O)[O-]`, the EC50 was more than 97.7 µM and the IC50 is more than 97.7 µM.

Turning to `O=C(O)C1CCCN1C(=O)c1cc(Cl)ccn1` (stereo not given), the EC50 was more than 200 µM and the IC50 is more than 200 µM.

Take `COc1ccc(C(c2ccc(C(C)C)cc(OC)c2=O)c2ccc(C(C)C)cc(OC)c2=O)cc1`: the result was inactive.

Regarding `CN(C)c1ccc(/C=N/NC(=S)Nc2ccccc2)cc1`, the EC50 is more than 200 µM and the IC50 is more than 200 µM.

`O=C(CCc1cc(-c2ccccc2)nc(=S)[nH]1)N(Cc1ccccc1)Cc1ccccc1`: the outcome was inactive.

Regarding `C=C1C(=O)OC2C3C(=C)[C@@H](OC(C)=O)CC3C(C)=CC(OC(=O)C(C)(O)C(C)OC(C)=O)[C@@H]12` (stereo not given in full), the EC50 is more than 200 µM and the IC50 was more than 200 µM.

With `CC/C(CC(=O)CCC(=O)Nc1c(C)cccc1C)=N\NC(=O)NN`, the EC50 is more than 145 µM and the 50% inhibitory concentration (IC50) was more than 145 µM.

Turning to `O=C(Nn1c(=S)[nH][nH]c1=S)c1ccccc1`, the concentration giving a half-maximal response (EC50) is more than 200 µM and the IC50 is more than 200 µM.

Take `O=C1C2CC3OC3CC2C(=O)N1CCCCCCN1C(=O)C2CC3OC3CC2C1=O` (stereo not given): the EC50 was more than 200 µM and the IC50 is more than 200 µM.

Consider `CCOC(=O)C(CC1OCCO1)C1=NC(C)(C)CC(C)O1` (stereo not given), for which the EC50 is more than 200 µM and the IC50 was more than 200 µM.

For `COC(=O)c1cc(S(=O)(=O)NC2=NCC(C)NN2)c(S)cc1Cl` (stereo not given), the EC50 was more than 200 µM and the half-maximal inhibitory concentration (IC50) stood at 17 µM.

In the case of `Cc1ccc(NC(=O)/C(CC(=O)c2sc(Nc3ccc(Cl)c(Cl)c3)nc2C)=N\Nc2ccc([N+](=O)[O-])cc2[N+](=O)[O-])c(C)c1`, the EC50 is more than 200 µM and the IC50 came to 25.1 µM.

As to `CC1=NNC(=O)C1C1CC(c2c[nH]c3ccccc23)=Nn2c(-c3ccccc3)nnc21` (stereo not given), the EC50 is more than 100 µM and the IC50 is 32.4 µM.

On to `O=C(O)CNCc1c2ccccc2nc2ccccc12`, for which the result was inactive.

For `COc1ccc2c(c1)C(C(=O)O)CC(=O)N2C` (stereo not given), the EC50 was more than 200 µM and the half-maximal inhibitory concentration (IC50) is more than 200 µM.

`O=C1C(Br)=C(Br)C(=O)c2ccc(=O)ccc21`: the EC50 was more than 55 µM and the 50% inhibitory concentration (IC50) worked out at 9.77 µM.

`COc1ccccc1NC(=S)N/C=C(\C#N)c1nc2ccccc2s1`: the EC50 is more than 200 µM and the half-maximal inhibitory concentration (IC50) is 117 µM.

Turning to `O=C(NC(Cl)(C(F)(F)F)C(F)(F)F)c1ccc(F)cc1`, the EC50 was more than 200 µM and the IC50 was more than 200 µM.

Turning to `CC[C@@]1(O)C(=O)OCc2c1cc1n(c2=O)Cc2cc3c(CN(C)C)c(O)ccc3nc2-1`, the outcome was inactive.

As for `O=[N+]([O-])c1cccc2nc3ccccc3c(NCCCN3CCCCC3)c12`, the EC50 was more than 2 µM and the IC50 worked out at 0.0126 µM.

Regarding `CCOC(=O)Nc1cc2c(c(N)n1)N=C(c1ccc(Cl)cc1Cl)CN2`, the EC50 was more than 10 µM and the concentration for half-maximal inhibition (IC50) amounted to 0.017 µM.

Take `COc1cccc(CCCNC(=O)Cc2ccccc2CO)c1`: the EC50 was more than 200 µM and the IC50 is more than 200 µM.

Take `COc1cc(CC(C)NC(C)=O)cc(OC)c1` (stereo not given): the EC50 is more than 200 µM and the IC50 is more than 200 µM.

`CCCc1ccc(OC2OC(CO)C(O)C(O)C2O)cc1` (stereo not given): the EC50 was more than 302 µM; the IC50 was > 302 µM and 85.1 µM.

Take `N#C/C(=C\c1ccc(O)c(O)c1)C(=O)NCCCCCCCCCCNC(=O)/C(C#N)=C/c1ccc(O)c(O)c1`: the EC50 was more than 200 µM and the IC50 was determined as 2.75 µM.

Regarding `CN1c2ccccc2NP1(=S)Oc1ccccc1` (stereo not given), the EC50 was more than 93.3 µM and the IC50 is more than 93.3 µM.

Consider `COC(=O)C1CCC(=O)N1C(c1ccc2c(c1)OCO2)c1cc(OC)c(OC)c(OC)c1` (stereo not given), for which the EC50 was more than 200 µM and the IC50 is more than 200 µM.

Consider `CC1=CC(C)=Nc2ccc(C)cc2N1`, for which the EC50 is more than 200 µM and the half-maximal inhibitory concentration (IC50) is 195 µM.

Turning to `OCCN=C1Nc2ccc(Cl)cc2C(=S)N2CSC[C@@H]12`, the EC50 is more than 200 µM and the half-maximal inhibitory concentration (IC50) is more than 200 µM.
